Laboratory results: patent US12383539B2 (Cavion, Inc., priority 2018, dated 2025)

Key:
[1] = tested on: patients with essential tremor; assay: T-CALM: TETRAS total score; format: in vivo, human
Procedure: The Total TETRAS score was defined as the sum of the TETRAS performance subscale total score and the TETRAS ADL subscale score. TETRAS TOTAL score combines both patient reported outcome and objective measurement of tremor amplitude in a single score. Analyses of the TETRAS-ADL was conducted using the same type of ANCOVA model as described for the TETRAS-PS, using two-sided tests at the alpha=0.05 level of significance (FIG. 3 and Table 3).

[2] = tested on: patients with essential tremor; assay: T-CALM: Clinical Global Impression of Improvement (CGI-I); format: in vivo, human
Source text: The Clinical Global Impressions Scale (CGI) was developed for use in NIMH-sponsored clinical trials to provide a brief, stand-alone assessment of the clinician's view of a patient's global functioning before and after initiating a study medication (Guy (ed.), ECDEU Assessment Manual for Psychopharmacology. Rockville, MD: US Department of Health, Education, and Welfare Public Health Service Alcohol, Drug Abuse, and Mental Health Administration; 1976). The CGI is a summary measure that takes into account all available information, including knowledge of the patient's history, psychosocial circumstances, symptoms, behavior, and the impact of the symptoms on the patient's ability to function. The CGI has two forms—the CGI-Severity, which rates illness severity at baseline, and the CGI-Improvement, which rates change from baseline.
The CGI-I consists of a single 7-point rating of total improvement or change from baseline CGI-S, regardless of whether or not the change is due entirely to drug treatment.
Treatment success as measured by CGI-I was summarized using descriptive statistics.
The Clinical Global Impressions Scale (CGI) generates a clinician's perception of a patient's functioning prior to and after study medication (see, e.g., Guy, Assessment Manual for Psychopharmacology. Rockville, MD: Department of Health, Education, and Welfare Public Health Service Alcohol, Drug Abuse, and Mental Health Administration, 1976). The CGI overall score considers patient history, psychosocial situations, symptoms and behavior with respect to the ability to function. The CGI-Improvement (CGI-I) will involve a single 7-point rating of total improvement or change from baseline CGI-Severity (CGI-S).

CC(C)c1ccc(CC(=O)N[C@H](C)c2ccc(OCC(F)(F)F)cn2)cc1 [CX-8998]
responders: improvement of at least 5 points by TETRAS Total score, % ([1]; Day 15): (56.4%) | responders: improvement of at least 5 points by TETRAS Total score, number ([1]; Day 15, N 39): 22 | TETRAS Total change from baseline 0 change: subjects, number (%) ([1]; Day 15, N = 39): 1 (2.6%) | TETRAS Total change from baseline >0 to 1 point improvement: subjects, number (%) ([1]; Day 15, N = 39): 2 (5.1%) | TETRAS Total change from baseline >0 to 1 point worsening: subjects, number (%) ([1]; Day 15, N = 39): 2 (5.1%) | TETRAS Total change from baseline >1 to 2.5 point improvement: subjects, number (%) ([1]; Day 15, N = 39): 2 (5.1%) | TETRAS Total change from baseline >1 to 2.5 point worsening: subjects, number (%) ([1]; Day 15, N = 39): 1 (2.6%) | TETRAS Total change from baseline >2.5 to 5 point improvement: subjects, number (%) ([1]; Day 15, N = 39): 7 (17.9%) | TETRAS Total change from baseline >2.5 to 5 point worsening: subjects, number (%) ([1]; Day 15, N = 39): 4 (10.3%) | TETRAS Total change from baseline >5 to 10 point improvement: subjects, number (%) ([1]; Day 15, N = 39): 6 (15.4%) | TETRAS Total change from baseline >5 to 10 point worsening: subjects, number (%) ([1]; Day 15, N = 39): 0 | TETRAS Total change from baseline >10 to 20 point improvement: subjects, number (%) ([1]; Day 15, N = 39): 12 (30.8%) | TETRAS Total change from baseline >20 point improvement: subjects, number (%) ([1]; Day 15, N = 39): 2 (5.1%) | TETRAS Total change from baseline >point worsening: subjects, number (%) ([1]; Day 15, N = 39): 0 | total TETRAS score with TETRAS-PS rated by independent video raters, vs placebo ([1]; Day 15 and Day 28): trended toward improvement for the CX-8998 group but was not statistically significant | responders: improvement of at least 5 points by TETRAS Total score, % ([1]; Day 28): (56.8%) | responders: improvement of at least 5 points by TETRAS Total score, number ([1]; Day 28, N 37): 21 | TETRAS Total change from baseline 0 change: subjects, number (%) ([1]; Day 28, N = 37): 0 | TETRAS Total change from baseline >0 to 1 point improvement: subjects, number (%) ([1]; Day 28, N = 37): 2 (5.4%) | TETRAS Total change from baseline >0 to 1 point worsening: subjects, number (%) ([1]; Day 28, N = 37): 4 (10.8%) | TETRAS Total change from baseline >1 to 2.5 point improvement: subjects, number (%) ([1]; Day 28, N = 37): 2 (5.4%) | TETRAS Total change from baseline >1 to 2.5 point worsening: subjects, number (%) ([1]; Day 28, N = 37): 2 (5.4%) | TETRAS Total change from baseline >2.5 to 5 point improvement: subjects, number (%) ([1]; Day 28, N = 37): 5 (13.5%) | TETRAS Total change from baseline >2.5 to 5 point worsening: subjects, number (%) ([1]; Day 28, N = 37): 1 (2.7%) | TETRAS Total change from baseline >5 to 10 point improvement: subjects, number (%) ([1]; Day 28, N = 37): 7 (18.9%) | TETRAS Total change from baseline >5 to 10 point worsening: subjects, number (%) ([1]; Day 28, N = 37): 0 | TETRAS Total change from baseline >10 point worsening: subjects, number (%) ([1]; Day 28, N = 37): 0 | TETRAS Total change from baseline >10 to 20 point improvement: subjects, number (%) ([1]; Day 28, N = 37): 8 (21.6%) | TETRAS Total change from baseline >20 point improvement: subjects, number (%) ([1]; Day 28, N = 37): 5 (13.5%) | CGI-I score 0-no change: subjects, number (%) ([2]; Day 15): 14 (36%) | CGI-I score 1-minimally improved: subjects, number (%) ([2]; Day 15): 19 (49%) | CGI-I score 2-much improved: subjects, number (%) ([2]; Day 15): 6 (15%) | CGI-I score 3-very much improved: subjects, number (%) ([2]; Day 15): 0 | CGI-I score −1-minimally worse: subjects, number (%) ([2]; Day 15): 0 | CGI-I score −2-much worse: subjects, number (%) ([2]; Day 15): 0 | CGI-I score −3-very much worse: subjects, number (%) ([2]; Day 15): 0 | responders: improvement by CGI-I, % ([2]; Day 15): (64.1%) | CGI-I category 0 No change, number (%) of patients ([2]; Day 15, N = 39): 14 (36%) | CGI-I category 1 Minimally improved, number (%) of patients ([2]; Day 15, N = 39): 19 (49%) | CGI-I category 2 Much improved, number (%) of patients ([2]; Day 15, N = 39): 6 (15%) | CGI-I category 3 Very much improved, number (%) of patients ([2]; Day 15, N = 39): 0 | CGI-I category −1 Minimally worse, number (%) of patients ([2]; Day 15, N = 39): 0 | CGI-I category −2 Much worse, number (%) of patients ([2]; Day 15, N = 39): 0 | CGI-I category −3 Very much worse, number (%) of patients ([2]; Day 15, N = 39): 0 | CGI-I score 0-no change: subjects, number (%) ([2]; Day 28): 13 (33%) | CGI-I score 1-minimally improved: subjects, number (%) ([2]; Day 28): 15 (38%) | CGI-I score 2-much improved: subjects, number (%) ([2]; Day 28): 9 (23%) | CGI-I score 3-very much improved: subjects, number (%) ([2]; Day 28): 0 | CGI-I score (rescaled −3 to 3), Mean (SD) ([2]; Day 28): 1 (0.8) | CGI-I score (rescaled −3 to 3), Median (minimum, maximum) ([2]; Day 28): 1 (0, 2) | CGI-I score −1-minimally worse: subjects, number (%) ([2]; Day 28): 0 | CGI-I score −2-much worse: subjects, number (%) ([2]; Day 28): 0 | CGI-I score −3-very much worse: subjects, number (%) ([2]; Day 28): 0 | responders: improvement by CGI-I, % ([2]; Day 28): (64.9%) | CGI-I: No Change, number of subjects ([2]; Day 28, total 37): 13 | CGI-I: Worsened, number of subjects ([2]; Day 28, total 37): 0 | CGI-I score, LS mean (SE) ([2]; Day 28, ANCOVA): 1.0 (0.13) | CGI-I score, LS mean difference from placebo (95% CI) ([2]; Day 28, ANCOVA): 0.6 (0.3, 0.9) | CGI-I category 0 No change, number (%) of patients ([2]; Day 28, N = 39): 13 (33%) | CGI-I category 1 Minimally improved, number (%) of patients ([2]; Day 28, N = 39): 15 (38%) | CGI-I category 2 Much improved, number (%) of patients ([2]; Day 28, N = 39): 9 (23%) | CGI-I category 3 Very much improved, number (%) of patients ([2]; Day 28, N = 39): 0 | CGI-I category −1 Minimally worse, number (%) of patients ([2]; Day 28, N = 39): 0
